target: T1, Ubiquitin-conjugating enzyme E2 N (Homo sapiens, UniProt P61088); experiment: concentration-dependent UBC13 chain formation blockade – biochemical, TR-FRET, reconfirmation, dose response (AID 493182)
T1 sequence (P61088 whole entry): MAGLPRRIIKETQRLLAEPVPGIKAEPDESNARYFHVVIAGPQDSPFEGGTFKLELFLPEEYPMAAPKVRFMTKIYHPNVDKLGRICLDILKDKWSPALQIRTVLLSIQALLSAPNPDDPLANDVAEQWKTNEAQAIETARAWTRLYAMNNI

IC50 [µM] | SMILES
4.79 | CC1=CC(C)(C)N2C(=O)/C(=N\NC(N)=S)c3cccc1c32 [SMR000218901]
3.56 | CC(C)NC(=S)NNC1=c2cc(C(C)C)ccc2=NC1=O [SMR000242097]
1.47 | COc1cc(C2c3c(-c4cccs4)n[nH]c3OC(=N)C2C#N)cc(OC)c1O (stereo unspecified) [SMR000275523]
> 20 | CCOc1ccc(-c2csc(NC(=O)c3cccc(-n4c(O)ccc4O)c3)n2)cc1 [SMR000319795]
2.07 | C#CCOCCOCCOCCNc1nc(N2CCN(C(=O)[C@H](CCCCN)n3cc([C@@H](N)C(C)CC)nn3)CC2)nc(N2CCN(C(=O)[C@H](Cc3cc4ccccc4[nH]3)n3cc([C@@H](N)CC(C)C)nn3)CC2)n1 (stereo partly specified) [SMR000391070]
10.2 | C#CCOCCOCCOCCNc1nc(N2CCN(C(=O)[C@H](CCCCN)n3cc([C@@H](N)C(C)CC)nn3)CC2)nc(N2CCN(C(=O)[C@H](Cc3ccc(O)cc3)n3cc([C@@H](N)C(C)CC)nn3)CC2)n1 (stereo partly specified) [SMR000391090]
2.78 | C#CCOCCOCCOCCNc1nc(N2CCN(C(=O)[C@H](CCCCN)n3cc([C@@H](N)CC(C)C)nn3)CC2)nc(N2CCN(C(=O)[C@H](Cc3cc4ccccc4[nH]3)n3cc([C@@H](N)Cc4ccc(O)cc4)nn3)CC2)n1 [SMR000391143]
6.27 | C#CCOCCOCCOCCNc1nc(N2CCN(C(=O)[C@H](Cc3cc4ccccc4[nH]3)n3cc([C@@H](N)C(C)CC)nn3)CC2)nc(N2CCN(C(=O)[C@H](Cc3cc4ccccc4[nH]3)n3cc([C@@H](N)Cc4ccc(O)cc4)nn3)CC2)n1 (stereo partly specified) [SMR000391146]
4.95 | CC1CC(C)(C)N2C(=O)/C(=N\NC(N)=S)c3cccc1c32 (stereo unspecified) [SMR000414933]
3.02 | CCN(CC)CCOC(=O)c1ccc(N=CC(C#N)c2nc(-c3ccc(OC)c(OC)c3)cs2)cc1 (stereo unspecified) [SMR000434079]
15.3 | C#CCOCCOCCOCCNc1nc(N2CCN(C(=O)C([C@@H](C)CC)n3cc(C(N)COC(=O)C(F)(F)F)nn3)CC2)nc(N2CCN(C(=O)[C@H](CCCCN)n3cc(C(N)CC(C)C)nn3)CC2)n1 (stereo partly specified) [SMR000453712]
3.36 | C#CCOCCOCCOCCNc1nc(N2CCN(C(=O)CCCCCCCCCCNC(=O)Cn3cc(CCCCCN)nn3)CC2)nc(N2CCN(C(=O)CCCCCCCCCCNC(=O)Cn3cc(CCCCCN)nn3)CC2)n1 [SMR001231146]
5.71 | C#CCOCCOCCOCCNc1nc(N2CCN(C(=O)CCCCCCCCCCNC(=O)[C@H](CO)n3cc(CCCSC)nn3)CC2)nc(N2CCN(C(=O)CCCCCCCCCCNC(=O)[C@H](CCCCN)n3cc(CCO)nn3)CC2)n1 [SMR001318322]

Further lines, the compound ahead of its results:

SMILES | IC50 [µM]
C#CCOCCOCCOCCNc1nc(N2CCN(C(=O)CCCCCCCCCCNC(=O)[C@H]([C@@H](C)CC)n3cc(CCCCCN)nn3)CC2)nc(N2CCN(C(=O)CCCCCCCCCCNC(=O)[C@H]([C@@H](C)CC)n3cc(CCCCN=C(N)N)nn3)CC2)n1 [MLS002153718] | 2.19
C#CCOCCOCCOCCNc1nc(N2CCN(C(=O)CCCCCCCCCCNC(=O)[C@@H](CCSC)n3cc(CCO)nn3)CC2)nc(N2CCN(C(=O)CCCCCCCCCCNC(=O)[C@H](CCC(=O)O)n3cc(CCCCCN)nn3)CC2)n1 [MLS002153730] | 16
C#CCOCCOCCOCCNc1nc(N2CCN(C(=O)CCCCCCCCCCNC(=O)[C@@H](CCSC)n3cc(CCO)nn3)CC2)nc(N2CCN(C(=O)CCCCCCCCCCNC(=O)[C@H](CO)n3cc(CCCCCN)nn3)CC2)n1 [MLS002153734] | 4.24
C#CCOCCOCCOCCNc1nc(N2CCN(C(=O)[C@H](CCCN=C(N)N)n3cc(C(N)[C@H](C)CC)nn3)CC2)nc(N2CCN(C(=O)[C@H](CCCN=C(N)N)n3cc(C(N)[C@@H](C)CC)nn3)CC2)n1 (stereo partly specified) [MLS002473475] | 19.3
COc1ccc2nc(C)cc(N=NCc3ccc(F)cc3)c2c1 [N-[(4-fluorophenyl)methylideneamino]-6-methoxy-2-methyl-4-quinolinamine] | 10.1
C#CCOCCOCCOCCNc1nc(N2CCN(C(=O)CCCCCCCCCCNC(=O)[C@H]([C@@H](C)CC)n3cc(CCCCN=C(N)N)nn3)CC2)nc(N2CCN(C(=O)CCCCCCCCCCNC(=O)[C@H](CCCCN)n3cc(C)nn3)CC2)n1 [RI-GK] | 1.68
Cc1cccc2c1C(=NNC(N)=S)C(=O)N2C1OC(CO)C(O)C(O)C1O (stereo unspecified) [The compound has not trivial name.] | 4.56
NC(=S)NN=C1C(=O)N(C2OC(=O)c3ccccc32)c2ccccc21 (stereo unspecified) [[(Z)-[2-oxo-1-(3-oxo-1H-isobenzofuran-1-yl)-3-indolylidene]amino]thiourea] | 2.38
